Results on four compounds are retold here after patent publication US20100323021A1, “ANTITUMORAL TREATMENTS” (PHARMA MAR, S.A., priority 2008, published 2010).

The test system of one series is colon (HT-29). The conditions noted are these: cited from earlier work.
Another series deals with mouse leukemia (P388). The conditions noted are these: cited from earlier work.
The test system of series [1] is non-small cell lung (A549). Particulars: cited from earlier work.
Series [2] relates to human cervical epithelium HeLa tumor cells. As to the kind of experiment: Antiproliferation assay (WST-1 cell viability). The series is classed as cell-based. Particulars: 24 h incubation, conjugates added at a peptide concentration of 1×10^−5 M. The method, then:
The degree of cytotoxic activity of single peptides (P1 and P2), single gold nanoparticle solutions (AuNP-20 and AuNP-40) and their respective conjugates was determined by cell viability testing using the WST-1 assay in human cervical epithelium HeLa tumor cells, following 24 h of incubation. Each assay was run in sextuplicate, and the whole experiment was run in triplicate.
HeLa cell line (ATTC no CCL-2) was maintained in Dulbecco Modified Eagle's Minimal Essential Medium (DMEM) low glucose medium (Biological Industries) containing 10% foetal calf serum (FCS), 2 mM glutamine, 50 U/mL penicillin, and […] streptomycin at 37° C. in a controlled 5% CO2 atmosphere.
For cell viability experiments, exponentially growing HeLa cells were detached from the culture flasks using a trypsin-0.25% ethylenediaminetetraacetic acid (EDTA) solution and the cell suspension was seeded at a concentration of 3.5×10^3 cells/cm^2 onto glass coverslips (Nalge Nunc International, Rochester, N.Y.). WST 1 assays were carried out 24 h later, when the confluence was approximately 70-80%. Non-adherent cells were washed away and attached cells were incubated at 37° C. in 5% CO2 in DMEM with a known concentration of gold nanoparticles.
For each assay, 3.5×10^3 cells/cm^2 were seeded onto a 96-well plate (Nalge Nunc) and cultured for 24 h. […]
(In general: Formazan colour is commonly taken as a measure of viable cells.)

The subject of series [3] is human tumor cell types such as breast, prostate, and melanoma. Particulars: xenografted murine models; cited from earlier work.

As to `C/C=C1\NC(=O)[C@H](Cc2ccccc2)NC(=O)[C@@H](C(C)C)NC(=O)[C@@H]([C@@H](C)CC)NC(=O)[C@H](NC(=O)[C@H](NC(=O)[C@H](CCCN)NC(=O)[C@H]2CCCN2C(=O)[C@H](NC(=O)[C@@H](NC(=O)[C@@H](NC(=O)[C@H](NC(=O)CCCC(C)C)C(C)C)[C@@H](C)O)C(C)C)C(C)C)[C@@H](C)CC)[C@@H](C)OC(=O)[C@H](C(C)C)NC1=O` [Kahalalide F], the in vitro activity result (with colon (HT-29); in the series on mouse leukemia (P388); in series [1]) was “micromolar activity” throughout. For the compound `C/C=C1\NC(=O)[C@H](Cc2ccccc2)NC(=O)[C@@H](C(C)C)NC(=O)[C@@H]([C@@H](C)CC)NC(=O)[C@H](NC(=O)[C@H](NC(=O)[C@H](CCCN)NC(=O)[C@H]2CCCN2C(=O)[C@H](NC(=O)[C@@H](NC(=O)[C@@H](NC(=O)[C@@H](CS)NC(=O)CCCC(C)C)[C@@H](C)O)C(C)C)C(C)C)[C@@H](C)CC)[C@@H](C)OC(=O)[C@H](C(C)C)NC1=O` [P1], in series [2], the “inhibition (cytotoxicity against HeLa cells)” value turned out to be 50%.

On to `C/C=C1\NC(=O)[C@H](Cc2ccccc2)NC(=O)[C@@H](C(C)C)NC(=O)[C@@H]([C@@H](C)CC)NC(=O)[C@H](NC(=O)[C@H](NC(=O)[C@H](CCCN)NC(=O)[C@H]2CCCN2C(=O)[C@H](NC(=O)[C@@H](NC(=O)[C@@H](NC(=O)[C@H](CS)NC(=O)CCCC(C)C)[C@@H](C)O)C(C)C)C(C)C)[C@@H](C)CC)[C@@H](C)OC(=O)[C@H](C(C)C)NC1=O` [P2], for which the “inhibition (cytotoxicity against HeLa cells)” value in series [2] came to 10%. For `C/C=C1\NC(=O)[C@H](Cc2ccccc2)NC(=O)[C@@H](C(C)C)NC(=O)[C@@H]([C@@H](C)CC)NC(=O)[C@H](NC(=O)[C@H](NC(=O)[C@H](CCCN)NC(=O)[C@H]2CCCN2C(=O)[C@H](NC(=O)[C@@H](NC(=O)[C@@H](NC(=O)[C@H](NC(=O)CC[C@@H](C)CC)C(C)C)[C@@H](C)O)C(C)C)C(C)C)[C@@H](C)CC)[C@@H](C)OC(=O)[C@H](C(C)C)NC1=O` [PMO2734], in series [3], the in vivo activity entry is “significant in vivo activity”.
